Laboratory results from a flash point compilation (Sun et al. 2020).

`COc1nn(CSP(=S)(OC)OC)c(=O)s1` and `CCOP(=S)(OCC)SCn1c(=O)oc2cc(Cl)ccc21` are the same in flash point: 100.00 °C for the first, 100.00 °C for the second.

First: CC1(C2CCC3(C)OC3C2)CO1 (stereo not given) [1-methyl-4-(2-methyloxiran-2-yl)-7-oxabicyclo[4.1.0]heptane]
Second: CC(C)C1=CC2=CC[C@@H]3[C@](C)(CCC[C@@]3(C)C(=O)O)[C@H]2CC1
The flash point of the first is lower: 118.00 °C for the first, 187.00 °C for the second.

Compared with `CC(C)Nc1ccc(Nc2ccccc2)cc1` [1-N-phenyl-4-N-propan-2-ylbenzene-1,4-diamine], `CC(C)CC(C)Nc1ccc(Nc2ccccc2)cc1` (stereo not given) [4-N-(4-methylpentan-2-yl)-1-N-phenylbenzene-1,4-diamine] is higher in flash point: 151.00 °C for the first, 204.00 °C for the second.

First: C=Cc1ccccc1Cl [1-chloro-2-ethenylbenzene]
Second: O=Cc1ccccc1O [2-hydroxybenzaldehyde]
The flash point of the first is lower: 59.00 °C for the first, 78.00 °C for the second.

First: ClC(Cl)c1ccccc1 [dichloromethylbenzene]
Second: CC(O)c1ccccc1 (stereo not given) [1-phenylethanol]
The flash point of the first is higher: 92.00 °C for the first, 85.00 °C for the second.

First: COC(=O)CC(C)=O [methyl 3-oxobutanoate]
Second: CC(=O)OCC(C)OC(C)=O (stereo not given) [2-acetyloxypropyl acetate]
The flash point of the first is lower: 70.00 °C for the first, 86.00 °C for the second.

Going from `CC(C)C(=O)OCC(C)(C)C(O)C(C)C` (stereo not given) [(3-hydroxy-2,2,4-trimethylpentyl) 2-methylpropanoate] to `CC(C)C(=O)O` [2-methylpropanoic acid], the flash point falls from 120.00 °C to 56.00 °C.

Going from `CCOC(=O)CC(O)(CC(=O)OCC)C(=O)OCC` [triethyl 2-hydroxypropane-1,2,3-tricarboxylate] to `CCOC(=O)OCC` [diethyl carbonate], the flash point falls from 155.00 °C to 25.00 °C.

First: Cc1ccc(C)o1 [2,5-dimethylfuran]
Second: Cc1ccc(C(C)(C)C)cc1 [1-tert-butyl-4-methylbenzene]
The flash point of the first is lower: -1.00 °C for the first, 58.00 °C for the second.

First: Cc1cc(O)ccc1Cl [4-chloro-3-methylphenol]
Second: O=[N+]([O-])c1ccc(Cl)c([N+](=O)[O-])c1 [1-chloro-2,4-dinitrobenzene]
The flash point of the first is lower: 110.00 °C for the first, 194.00 °C for the second.

Compared with `c1ccc(OP(Oc2ccccc2)Oc2ccccc2)cc1` [triphenyl phosphite], `c1ccc(Nc2ccc(Nc3ccccc3)cc2)cc1` [1-N,4-N-diphenylbenzene-1,4-diamine] is lower in flash point: 218.00 °C for the first, 204.00 °C for the second.

Going from `CCCC(=O)OCC` [ethyl butanoate] to `CCCC(=O)OC(=O)CCC` [butanoyl butanoate], the flash point rises from 24.00 °C to 82.00 °C.

Compared with `CCCN(CCC)CCC` [N,N-dipropylpropan-1-amine], `CCCN(CCC)C(=O)SCC` [S-ethyl N,N-dipropylcarbamothioate] is higher in flash point: 37.00 °C for the first, 116.00 °C for the second.

Going from `CCOC(C)OCC` [1,1-diethoxyethane] to `CC(O)COC(C)COC(C)CO` (stereo not given) [2-[2-(2-hydroxypropoxy)propoxy]propan-1-ol], the flash point rises from -21.00 °C to 141.00 °C.

First: CN [methanamine]
Second: CO [methanol]
The flash point of the first is lower: 0.00 °C for the first, 11.00 °C for the second.

Going from `CCCCCCCCS` [octane-1-thiol] to `CCCCCS` [pentane-1-thiol], the flash point falls from 46.00 °C to 18.00 °C.

First: C=CC1CC=CCC1 (stereo not given) [4-ethenylcyclohexene]
Second: C1=CCCC1 [cyclopentene]
The flash point of the first is higher: 16.00 °C for the first, -34.00 °C for the second.

First: C=C(C#N)C(=O)OCC [ethyl 2-cyanoprop-2-enoate]
Second: C=C(C#N)C(=O)OC [methyl 2-cyanoprop-2-enoate]
The flash point of the first is higher: 82.00 °C for the first, 79.00 °C for the second.

Compared with `CCCC(=O)O` [butanoic acid], `CCCCC(=O)O` [pentanoic acid] is higher in flash point: 77.00 °C for the first, 89.00 °C for the second.

Compared with `C1N2CN3CN1CN(C2)C3` [1,3,5,7-tetrazatricyclo[3.3.1.13,7]decane], `C1CN(SSN2CCOCC2)CCO1` [4-(morpholin-4-yldisulfanyl)morpholine] is lower in flash point: 250.00 °C for the first, 121.00 °C for the second.

Compared with `CCC(C)Br` (stereo not given) [2-bromobutane], `CCCCCC(C)O` (stereo not given) [heptan-2-ol] is higher in flash point: 21.00 °C for the first, 71.00 °C for the second.

Compared with `C[C@@H]1[C@@H](c2ccc(Cl)cc2)SC(=O)N1C(=O)NC1CCCCC1`, `Oc1ccc(Cl)cc1Cc1ccccc1` [2-benzyl-4-chlorophenol] is higher in flash point: 100.00 °C for the first, 188.00 °C for the second.

Compared with `CC(C)OC(=O)Cl` [propan-2-yl carbonochloridate], `CC(C)CON=O` [2-methylpropyl nitrite] is lower in flash point: 16.00 °C for the first, -23.00 °C for the second.

Compared with `CC(=O)OCc1ccco1` [furan-2-ylmethyl acetate], `CCc1ccccc1N` [2-ethylaniline] is higher in flash point: 66.00 °C for the first, 85.00 °C for the second.

Going from `OC1CCCC1` [cyclopentanol] to `C1O[C@H]1[C@H]1CO1` [(2R)-2-[(2R)-oxiran-2-yl]oxirane], the flash point falls from 51.00 °C to 46.00 °C.

First: Clc1ccccc1 [chlorobenzene]
Second: NCc1ccccc1 [phenylmethanamine]
The flash point of the first is lower: 24.00 °C for the first, 76.00 °C for the second.

First: Cc1c2ccccc2c(C)c2c1ccc1ccccc12 [7,12-dimethylbenzo[a]anthracene]
Second: c1ccc2c(c1)ccc1ccccc12 [phenanthrene]
The flash point of the first is lower: 86.00 °C for the first, 171.00 °C for the second.

Going from `O=S(=O)(O)c1ccccc1` [benzenesulfonic acid] to `NNc1ccccc1` [phenylhydrazine], the flash point falls from 113.00 °C to 88.00 °C.

Going from `CCOCCOCCOCCO` [2-[2-(2-ethoxyethoxy)ethoxy]ethanol] to `OCCOCCOCCO` [2-[2-(2-hydroxyethoxy)ethoxy]ethanol], the flash point rises from 135.00 °C to 166.00 °C.

Compared with `c1ccc2cc3ccccc3cc2c1` [anthracene], `c1ccc(-c2ccccc2)cc1` [1,1'-biphenyl] is lower in flash point: 121.00 °C for the first, 113.00 °C for the second.

First: Nc1cccc(Cl)c1 [3-chloroaniline]
Second: Nc1cccc(C(F)(F)F)c1 [3-(trifluoromethyl)aniline]
The flash point of the first is higher: 124.00 °C for the first, 85.00 °C for the second.

First: CCCOCCO [2-propoxyethanol]
Second: CCCO [propan-1-ol]
The flash point of the first is higher: 49.00 °C for the first, 25.00 °C for the second.

Compared with `Clc1cc(Cl)c(Cl)cc1Cl` [1,2,4,5-tetrachlorobenzene], `COc1cc(C=O)ccc1O` [4-hydroxy-3-methoxybenzaldehyde] is lower in flash point: 155.00 °C for the first, 153.00 °C for the second.

Going from `C=C(C)C(=O)OCC(Br)CBr` (stereo not given) [2,3-dibromopropyl 2-methylprop-2-enoate] to `C=C(C)C(=O)OCCNC(C)(C)C` [2-(tert-butylamino)ethyl 2-methylprop-2-enoate], the flash point rises from 59.00 °C to 96.00 °C.

Compared with `CCCCCCCCCC(C)=O` [undecan-2-one], `CCCCCCCC/C=C\CCCCCCCC(=O)O` [(Z)-octadec-9-enoic acid] is higher in flash point: 89.00 °C for the first, 189.00 °C for the second.

First: C=CC(=O)OCCCCCCCCCCCCC [tridecyl prop-2-enoate]
Second: CCCCCCCCCCCCCCCCCCCC [icosane]
The flash point of the first is higher: 132.00 °C for the first, 100.00 °C for the second.

Compared with `CCSCc1ccccc1OC(=O)NC` [[2-(ethylsulfanylmethyl)phenyl] N-methylcarbamate], `COc1ccccc1N` [2-methoxyaniline] is lower in flash point: 123.00 °C for the first, 99.00 °C for the second.

Going from `OCC(O)CO` [propane-1,2,3-triol] to `CC(O)CCC(C)O` (stereo not given) [hexane-2,5-diol], the flash point falls from 160.00 °C to 101.00 °C.

Compared with `CN(C)N=O` [N,N-dimethylnitrous amide], `CC(C)(C)OO` [2-hydroperoxy-2-methylpropane] is lower in flash point: 61.00 °C for the first, 27.00 °C for the second.

Compared with `O=C1OC(=O)C2CC=CCC12` (stereo not given) [3a,4,7,7a-tetrahydro-2-benzofuran-1,3-dione], `O=C1CCc2ccccc2O1` [3,4-dihydrochromen-2-one] is lower in flash point: 157.00 °C for the first, 130.00 °C for the second.

Compared with `CCCC(C)=O` [pentan-2-one], `CCCC(CCC)C(=O)O` [2-propylpentanoic acid] is higher in flash point: 7.00 °C for the first, 111.00 °C for the second.

First: O=P(OC(CCl)CCl)(OC(CCl)CCl)OC(CCl)CCl [tris(1,3-dichloropropan-2-yl) phosphate]
Second: CCCCOCN(C(=O)CCl)c1c(CC)cccc1CC [N-(butoxymethyl)-2-chloro-N-(2,6-diethylphenyl)acetamide]
The flash point of the first is higher: 252.00 °C for the first, 114.00 °C for the second.

Going from `c1cc[nH]c1` [1H-pyrrole] to `C[Si]1(C)O[Si](C)(C)O[Si](C)(C)O[Si](C)(C)O1`, the flash point rises from 39.00 °C to 55.00 °C.

Compared with `CCCCCCCCCCCC(=O)[O][Sn]([CH2]CCC)([CH2]CCC)[O]C(=O)CCCCCCCCCCC` [[dibutyl(dodecanoyloxy)stannyl] dodecanoate], `CCC[CH2][Sn]([CH2]CCC)([O]C(C)=O)[O]C(C)=O` [[acetyloxy(dibutyl)stannyl] acetate] is lower in flash point: 235.00 °C for the first, 143.00 °C for the second.

First: CCSCC [ethylsulfanylethane]
Second: C[CH2][Al]([Cl])[CH2]C [chloro(diethyl)alumane]
The flash point of the first is higher: -10.00 °C for the first, -23.00 °C for the second.

Compared with `C=COCCOC` [1-ethenoxy-2-methoxyethane], `C=C(C)C(=O)OCCCCCCCC(C)C` [8-methylnonyl 2-methylprop-2-enoate] is higher in flash point: 18.00 °C for the first, 121.00 °C for the second.

Going from `CC1(C)C(=O)N(Cl)C(=O)N1Cl` [1,3-dichloro-5,5-dimethylimidazolidine-2,4-dione] to `CC(=O)C=CC1C(C)=CCCC1(C)C` (stereo not given) [4-(2,6,6-trimethylcyclohex-2-en-1-yl)but-3-en-2-one], the flash point falls from 174.00 °C to 118.00 °C.

Going from `O=CC1CO1` (stereo not given) [oxirane-2-carbaldehyde] to `CS(=O)(=O)O` [methanesulfonic acid], the flash point rises from 31.00 °C to 189.00 °C.

Compared with `CCCCCCC` [heptane], `CCCSSCCC` [1-(propyldisulfanyl)propane] is higher in flash point: -4.00 °C for the first, 66.00 °C for the second.

First: CCCCN(CC)C(=O)SCCC [S-propyl N-butyl-N-ethylcarbamothioate]
Second: CCCC#N [butanenitrile]
The flash point of the first is higher: 51.00 °C for the first, 17.00 °C for the second.
